Results reported in patent US20250368628A1, “METHODS AND COMPOUNDS FOR MODULATING INHERITED GENETIC DISEASES” (Design Therapeutics, Inc., priority 2022, published 2025).
Like-named read-outs stand apart in the source and are kept apart here.

What was measured:
[1] = tested on: Myotonic Dystrophy 1 affected patient fibroblasts (Coriel GM04602; 1600 CTG repeats); test: DM1 foci reduction assay (EC50 assay; CAG10-Cy3 FISH, foci per nucleus); format: cell-based
In short: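 Foci per nucleus counted by 20× imaging of 4 areas per well, after overnight FISH with 5 nM CAG10-Cy3 and DAPI staining of fixed, permeabilized cells. DM1 fibroblasts (GM04602, 1600 CTG) were dosed 48 h at 37 °C, 8 points, 3-fold dilutions, 3 μM top concentration.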

[2] = tested on: F35T cells; test: Foci reduction in FECD (CAG10-Cy3 FISH, foci per nucleus); format: cell-based
Experimental: F35T cells were cultured in media containing Opti-MEM (ThermoFisher) supplemented with 8% FBS, 20 μg/mL ascorbic acid, […] CaCl2, 0.08% chondroitin sulfate, 1×Pen/Strep, 100 μg/mL bovine pituitary extract, 5 ng/mL epidermal growth factor, and 20 ng/mL nerve growth factor. Throughout the culture, cells were maintained in an incubator at 37° C. and 5% CO2. Media was refreshed every 48 hours. Once cells reached adequate confluency, they were harvested and seeded in 96 well plates with a density of 5000 cells per well in 200 μL of the supplemented Opti-MEM media. Cells were returned to the incubator and left to settle for 24 hours at 37° C. and 5% CO2. Cells were then treated in 8-point dose response with compounds or negative controls and incubated for 48 hours at 37° C. and 5% CO2. After treatment, cells were fixed with 4% PFA for 20 minutes at room temperature, followed by permeabilization with 70% ethanol. Cells were incubated at −20° C. for a minimum of 1 hour and maximum of 72 hours, after which the ethanol was removed, and cells were washed with PBS. Cells were rehydrated with 30% formamide and 2×SSC buffer for 10 minutes at room temperature. Cells were then incubated overnight at 37° C. in the hybridization solution containing 30% formamide, 2×SSC, 55 mg/mL dextran sulfate, 2.75 mg/mL bovine serum albumin, 0.2 μg/mL Herring sperm DNA, 1% vanadyl-ribonucleoside complex, and 0.05% 10 μM CAG10-Cy3 probe. Cells were washed twice with 30% formamide in 2×SSC, incubating the cells while shaking with the second wash at 37° C. and 200 rpm for 60 minutes. Cells were stained with 5 mg/mL DAPI 1:1000 in PBS, incubating at room temperature for 5 minutes. Cells were then washed with PBS and sealed with adhesive foil, with each well containing a final volume of 150 μL PBS. Cells were imaged on a Cytation 5 and analyzed on a foci per nucleus basis.

[3] = Homo sapiens, Fibroblast; DM1 patient fibroblasts, 48 h treatment, foci per nucleus; read-out: DM1 EC50, 48 h
[4] = F35T cells, 48 h treatment, foci per nucleus; read-out: FECD EC50, 48 h
[5] = Homo sapiens, Fibroblast; DM1 patient fibroblasts, foci per nucleus, 48 h treatment; read-out: DM1 EC50, 48 h
[6] = F35T cells, foci per nucleus, 48 h treatment; read-out: FECD EC50, 48 h

SMILES | EC50 [1, 3] [nM] | EC50 [2, 4] [nM] | EC50 [1, 5] [nM] | EC50 [2, 6] [nM]
COC(=O)CCCN(CCCC(=O)O)Cc1ncc(C2CN(C(=O)CCNC(=O)c3nc(NC(=O)c4cc(NC(=O)CCNC(=O)c5nc(NC(=O)CCCNC(=O)c6cc(NC(=O)c7nc(NC(=O)CCNC(=O)c8cc(NC(=O)c9nccn9C)cn8C)cn7C)cn6C)cn5C)cn4C)cn3C)C2)[nH]1 [Compound B-370] | > 1000 | > 1000 |  | 
CC(=O)NCCn1cc(NC(=O)c2nc(NC(=O)CCNC(=O)c3cc(NC(=O)c4nccn4C)cn3C)cn2C)cc1C(=O)NCCCC(=O)Nc1cn(C)c(C(=O)NCCC(=O)Nc2cc(C(=O)Nc3cn(C)c(C(=O)NCCC(=O)N4CCC(C#CC#CC5CCN(C(C)=O)CC5)CC4)n3)n(C)c2)n1 [Compound B-269] | 100 to 500 | < 100 |  | 
CCCn1cc(NC(=O)c2nc(NC(=O)CCNC(=O)c3cc(NC(=O)c4nccn4C)cn3C)cn2C)cc1C(=O)NCCCC(=O)Nc1cn(C)c(C(=O)NCCC(=O)Nc2cc(C(=O)Nc3cn(C)c(C(=O)NCCC(=O)N4CCN(C)CC4)n3)n(C)c2)n1 [Compound B-429] |  |  | < 100 | < 100
CN(C)CCOCCNC(=O)CCNC(=O)c1nc(NC(=O)c2cc(NC(=O)CCNC(=O)c3nc(NC(=O)CCCNC(=O)c4cc(NC(=O)c5nc(NC(=O)CCNC(=O)c6cc(NC(=O)c7nccn7C)cn6C)cn5C)cn4C)cn3C)cn2C)cn1C [Compound B-42] | 100 to 500 | 100 to 500 |  | 
Cn1cc(NC(=O)c2nc(NC(=O)CCNC(=O)c3cc(NC(=O)c4nccn4C)cn3C)cn2C)cc1C(=O)NCCCC(=O)Nc1cn(C)c(C(=O)NCCC(=O)Nc2cc(C(=O)Nc3cn(C)c(C(=O)NCCC(=O)NCCOCCOc4ccc(NC(=O)OCc5ccccc5)cc4)n3)n(C)c2)n1 [Compound B-15] | < 100 | < 100 |  | 
CCCCCCn1cc(NC(=O)c2nc(NC(=O)CCNC(=O)c3cc(NC(=O)c4nccn4C)cn3C)cn2C)cc1C(=O)NCCCC(=O)Nc1cn(C)c(C(=O)NCCC(=O)Nc2cc(C(=O)Nc3cn(C)c(C(=O)NCCC(=O)NCCC)n3)n(C)c2)n1 [Compound B-323] | < 100 | < 100 |  | 
Cn1cc(NC(=O)c2nc(NC(=O)CCNC(=O)c3cc(NC(=O)c4nccn4C)cn3C)cn2C)cc1C(=O)NCCCC(=O)Nc1cn(C)c(C(=O)NCCC(=O)Nc2cc(C(=O)Nc3cn(C)c(C(=O)NCCCCCCCN)n3)n(C)c2)n1 [Compound B-337] | 100 to 500 | < 100 |  | 
CC(=O)N1CCC(C#CC#CC2CCN(C(=O)CCNC(=O)c3nc(NC(=O)c4cc(NC(=O)CCNC(=O)c5nc(NC(=O)CCCNC(=O)c6cc(NC(=O)c7nc(NC(=O)CCNC(=O)c8cc(NC(=O)c9nccn9C)cn8C)cn7C)cn6CCCOCCN)cn5C)cn4C)cn3C)CC2)CC1 [Compound B-302] | < 100 | < 100 |  | 
Cn1cc(NC(=O)c2nccn2C)cc1C(=O)NCCC(=O)Nc1cn(C)c(C(=O)Nc2cc(C(=O)NC[C@H](N)CC(=O)Nc3cn(C)c(C(=O)NCCC(=O)Nc4cc(C(=O)Nc5cn(C)c(C(=O)NCCC(=O)N6CCC(C#CC#CC7CCNCC7)CC6)n5)n(C)c4)n3)n(C)c2)n1 [Compound B-419] |  |  | 100 to 500 | < 100
CCCNC(=O)CCNC(=O)c1nc(NC(=O)c2cc(NC(=O)CCNC(=O)c3nc(NC(=O)CCCNC(=O)c4cc(NC(=O)c5nc(NC(=O)CCNC(=O)c6cc(NC(=O)c7nccn7C)cn6C)cn5C)cn4CCCOCCN)cn3C)cn2C)cn1C [Compound B-301] | 100 to 500 | < 100 |  | 
Cn1cc(NC(=O)c2nccn2C)cc1C(=O)NCCC(=O)Nc1cn(C)c(C(=O)Nc2cc(C(=O)NCCCC(=O)Nc3cn(C)c(C(=O)NCCC(=O)Nc4cc(C(=O)Nc5cn(C)c(C(=O)NCCC(=O)N6CCC(C#CC#CC7CCNCC7)CC6)n5)n(C)c4)n3)n(CCN)c2)n1 [Compound B-267] | < 100 | < 100 |  | 
Cn1cc(NC(=O)c2nc(NC(=O)CCNC(=O)c3cc(NC(=O)c4nccn4C)cn3C)cn2C)cc1C(=O)NCCCC(=O)Nc1cn(C)c(C(=O)NCCC(=O)Nc2cc(C(=O)Nc3cn(C)c(C(=O)NCCC(=O)N4CCC(C#CC#CC5CCN(C(=O)c6cccc(C(=O)O)c6)CC5)CC4)n3)n(C)c2)n1 [Compound B-224] | > 1000 | 500 to 1000 |  | 
CCCNC(=O)c1nc(NC(=O)c2cc(NC(=O)CCNC(=O)c3nc(NC(=O)CCCNC(=O)c4cc(NC(=O)c5nc(NC(=O)CCNC(=O)c6cc(NC(=O)c7nccn7C)cn6C)cn5C)cn4CCCCCCn4cc(COCCOCCOCCOC)nn4)cn3C)cn2C)cn1C [Compound B-376] | > 1000 | 100 to 500 |  | 
CN(C)CCCNC(=O)c1nc(NC(=O)c2cc(NC(=O)CCNC(=O)c3nc(NC(=O)CCCNC(=O)c4cc(NC(=O)c5nc(NC(=O)CCNC(=O)c6cc(NC(=O)c7nccn7C)cn6C)cn5C)cn4C)cn3C)cn2C)cn1C [Compound B-108] | 100 to 500 | 100 to 500 |  | 
Cn1cc(NC(=O)c2nc(NC(=O)CCNC(=O)c3cc(NC(=O)c4nccn4C)cn3C)cn2C)cc1C(=O)NCCCC(=O)Nc1cn(C)c(C(=O)NCCC(=O)Nc2cc(C(=O)Nc3cn(C)c(C(=O)NCCC(=O)NCCCN=C(N)N)n3)n(C)c2)n1 [Compound B-34] | 500 to 1000 |  |  | 
CCCCCC(=O)N1CCC(C#CC#CC2CCN(CCCCCNC(=O)CCNC(=O)c3nc(NC(=O)c4cc(NC(=O)CCNC(=O)c5nc(NC(=O)CCCNC(=O)c6cc(NC(=O)c7nc(NC(=O)CCNC(=O)c8cc(NC(=O)c9nccn9C)cn8C)cn7C)cn6C)cn5C)cn4C)cn3C)CC2)CC1 [Compound B-182] | 500 to 1000 |  |  | 
CN(C)CC#CC#Cc1ccc(NC(=O)CCNC(=O)c2nc(NC(=O)c3cc(NC(=O)CCNC(=O)c4nc(NC(=O)CCCNC(=O)c5cc(NC(=O)c6nc(NC(=O)CCNC(=O)c7cc(NC(=O)c8nccn8C)cn7C)cn6C)cn5C)cn4C)cn3C)cn2C)cc1 [Compound B-139] | > 1000 |  |  | 
Cn1cc(NC(=O)c2nc(NC(=O)CCNC(=O)c3cc(NC(=O)c4nccn4C)cn3C)cn2C)cc1C(=O)NCCCC(=O)Nc1cn(C)c(C(=O)NCCC(=O)Nc2cc(C(=O)Nc3cn(C)c(C(=O)NCCCN4CCC(C#CC#CC5CCN(C(=O)OC(C)(C)C)CC5)CC4)n3)n(C)c2)n1 [Compound B-360] | < 100 |  |  | 
CN(C)CCCNC(=O)c1cc(NC(=O)CCNC(=O)c2nc(NC(=O)CCCNC(=O)c3cc(NC(=O)c4nc(NC(=O)CCNC(=O)c5cc(NC(=O)c6nccn6C)cn5C)cn4C)cn3C)cn2C)cn1C [Compound B-212] | > 1000 |  |  | 
CCN(CC)CCCC[C@H](NC(=O)c1cccc(C(=O)OC(C)(C)C)c1)C(=O)NCCOCCOCCOCCNC(=O)c1nc(NC(=O)c2cc(NC(=O)CCNC(=O)c3nc(NC(=O)CCCNC(=O)c4cc(NC(=O)c5nc(NC(=O)CCNC(=O)c6cc(NC(=O)c7nccn7C)cn6C)cn5C)cn4C)cn3C)cn2C)cn1C [Compound B-353] | 100 to 500 |  |  | 
Cn1cc(NC(=O)c2nc(NC(=O)CCNC(=O)c3cc(NC(=O)c4nccn4C)cn3C)cn2C)cc1C(=O)NCCCC(=O)Nc1cn(C)c(C(=O)NCCC(=O)Nc2cc(C(=O)Nc3cn(C)c(C(=O)NCCC(=O)NC4CCNCC4)n3)n(C)c2)n1 [Compound B-140] | > 1000 |  |  | 
CCN(CC)CCCC[C@H](NC(=O)C1CCN(C)CC1)C(=O)NCCOCCOCCOCCOCCOCCNC(=O)CCNC(=O)c1nc(NC(=O)c2cc(NC(=O)CCNC(=O)c3nc(NC(=O)CCCNC(=O)c4cc(NC(=O)c5nc(NC(=O)CCNC(=O)c6cc(NC(=O)c7nccn7C)cn6C)cn5C)cn4C)cn3C)cn2C)cn1C [Compound B-96] | 100 to 500 |  |  | 
CN(CCCCCc1cccc(C(=O)O)c1)CCCNC(=O)c1nc(NC(=O)c2cc(NC(=O)CCNC(=O)c3nc(NC(=O)CCCNC(=O)c4cc(NC(=O)c5nc(NC(=O)CCNC(=O)c6cc(NC(=O)c7nccn7C)cn6C)cn5C)cn4C)cn3C)cn2C)cn1C [Compound B-215] | 100 to 500 |  |  | 
COC(=O)c1cccc(CCCCCN(C)CCCNC(=O)c2nc(NC(=O)c3cc(NC(=O)CCNC(=O)c4nc(NC(=O)CCCNC(=O)c5cc(NC(=O)c6nc(NC(=O)CCNC(=O)c7cc(NC(=O)c8nccn8C)cn7C)cn6C)cn5C)cn4C)cn3C)cn2C)c1 [Compound B-340] | < 100 |  |  | 
CCCNC(=O)c1nc(NC(=O)c2cc(NC(=O)CCNC(=O)c3nc(NC(=O)CC4(CNC(=O)c5cc(NC(=O)c6nc(NC(=O)CCNC(=O)c7cc(NC(=O)c8nccn8C)cn7C)cn6C)cn5C)CC4)cn3C)cn2C)cn1C [Compound B-435, 1-methyl-4-(3-{[1-methyl-4-(1-methylimidazole-2-amido)pyrrol-2-yl]formamido}propanamido)-N-[1-methyl-5-({[1-({[1-methyl-2-({2-[(1-methyl-5-{[1-methyl-2-(propylcarbamoyl)imidazol-4-yl]carbamoyl}pyrrol-3-yl)carbamoyl]ethyl}carbamoyl)imidazol-4-yl]carbamoyl}methyl)cyclopropyl]methyl}carbamoyl)pyrrol-3-yl]imidazole-2-carboxamide] |  |  | < 100 | 
